“Also recorded” adds a separate entry of the source. Where two headings read alike, the source gives them in different places.
Experiments:
Leishmania braziliensis = experiment: Leishmanicidal activity against promastigotes (resazurin); format: cell-based; conditions: for IC50: promastigote form, 24 h treatment, resazurin, read-out: IC50 L. braziliensis; for SI L. braziliensis: selectivity index = CC50 (Vero) / IC50 (L. braziliensis promastigotes)
Experimental: (§1) The Leishmania infantum and Leishmania braziliensis strains were maintained in Schneider medium supplemented with 20% of SFB (Schneider 20%), cultivated in […] bottles and stored at 28 °C in a BOD oven. For the assays, parasites at the 5th day stationary growth phase were used.
(§2) The promastigotes metacyclic form of Leishmania infantum and Leishmania braziliensis were first filtered with an insulin syringe to break up rosettes and, then, were isolated from the culture in the stationary phase by centrifugation of 400× g for 4 min at a temperature of 4 °C [53]. The supernatant was subjected to a new centrifugation, heavier, of 2000× g for 30 min, also at 4 °C. The supernatant was discarded and the cell pallet formed from this centrifugation was resuspended in 10 mL of 10% Schneider medium. The process ensured the removal of cellular debris and dead parasites, as well as possible crystals from the culture medium, so that the quality of the experiment was guaranteed. Then, the promastigotes were diluted to 1:10 in paraformaldehyde (PFA) for counting in a Neubauer Chamber, with the concentrations adjusted for each experiment.
(§3) An amount of 1 × 10^7 parasites per well was used. The parasites were plated in 96-well plates. Then, the compounds were added in triplicate, starting at a concentration of 500 µM, with serial dilutions being performed up to a concentration of 3.9 µM [53]. The treatment was carried out for 24 h and, after adding 5 µL of resazurin, the fluorescence was read using a Enspire model spectrofluorometer (Perkin-Elmer, Waltham, MA, USA).

Leishmania infantum = experiment: as above; format: cell-based; conditions: for IC50: promastigote form, 24 h treatment, resazurin, read-out: IC50 L. infantum; for SI L. infantum: selectivity index = CC50 (Vero) / IC50 (L. infantum promastigotes)
Experimental: as §1, §2, §3

Vero cells = experiment: Cytotoxicity assay on Vero cells (resazurin); format: cell-based, African green monkey; conditions: 24 h treatment
Experimental: (§4) For the experiment, Vero cells (ATCC CRL-1587) were used in Roswell Parl Memorial Institute (RPMI) medium with 10% fetal bovine serum (FBS) (RPMI 10%) and 20 μg/mL of Gentamicin. They were cultivated in culture bottles of […] and kept in an oven at 37 °C with 5% carbon dioxide (CO2). When picked or used on the day of the experiment, the cells were detached from the wall of the bottles with saline and 1X trypsin/EDTA. To find out how many cells there were in the bottle, it was diluted in Turkey liquid and then we proceeded with the counting in the Neubauer Chamber to calculate the desired concentrations. The Vero cells were plated at […] cells per well, in 96-well plates, and kept in an incubator with 5% CO2 at 37 °C for 24 h. Then, the compounds were added in triplicate, starting at a concentration of 500 µM, with serial dilution being performed up to a concentration of 3.9 µM [54]. The treatment was carried out for 24 h, and, after adding 5 µL of resazurin, the fluorescence was read using a spectrofluorometer (EnSpire Perkin-Elmer, Waltham, MA, USA).

[1] = Cytotoxicity assay on Vero cells (resazurin); format: cell-based, African green monkey; conditions: African green monkey, Vero cells (ATCC CRL-1587), 24 h treatment
Experimental: as §4

[2] = Solubility in buffer for the fluorescence experiments; format: physicochemical; conditions: Tris-HCl buffer
Experimental: The compounds were solubilized in DMSO and then we made successive dilutions in a Tris-HCl 25 mmol L^−1 buffer, pH 8.0, containing 100 mmol L^−1 of NaCl. For all experiments, the final concentration of DMSO was kept constant and equal to 2.5%. Solutions with increasing concentrations of ligand and constant concentration of LbOYE (1 µmol L^−1) were prepared, which were kept at 25 °C for a period of 1h before acquisition of fluorescence emission spectra.
After the synthesis and structural characterization of the compounds, studies of interaction of the compounds and the recombinant LbOYE were carried out by fluorescence measurements.

[3] = system: RAW macrophages infected with Leishmania infantum; experiment: Infectivity test / infection rate in RAW macrophages; format: cell-based; conditions: three concentrations (below IC50, IC50, above IC50), 24 h treatment
Experimental: For the infection of RAW macrophages adhered to the plates, we used parasites in the promastigote form of Leishmania infantum, in the stationary phase, in a ratio of 10:1 (promastigotes/macrophages).
Macrophages were plated in the amount of 5 × 10^4 cells per well, in 96-well plates, which were kept in a CO2 oven at 37 °C for 24 h. The parasites were plated at a concentration of 10:1. The plates were kept in a CO2 oven for 12 h until the parasites infected the cells. […] Plates were fixed with paraformol for further evaluation. Plaques were evaluated by counting parasites within 200 cells under the EVOS Cell Imaging System (Thermo Scientific, Waltham, MA, USA) microscope by staining with propidium iodide.
In view of the data obtained, the six most promising compounds (HL1^Ch, HL2^Ph, Ag3, Ag4, Ag6 and Au2) were selected for carrying out the infection rate test against the L. infantum parasite. […] This test was performed at four stages. The first step determined the percentage of the amount in 200 infected macrophages per parasite, the second determined the percentage of parasites that infects 100 cells/macrophages, the third determined the average percentage of parasites that infects 200 cells/macrophages and, finally, the fourth step indicated the infection rate, that is, the result of the amount of Leishmania per macrophage (obtained from the third step) multiplied by the percentage of infected macrophages. Figure 5 presents the graphs of the infection rates, while the other graphs can be found in Figure S7.4.

Row | SMILES | IC50 (Leishmania braziliensis) | SI L. braziliensis (Leishmania braziliensis) | IC50 (Leishmania infantum) | CC50 (Vero cells) | IC50 (Leishmania braziliensis; Leishmania braziliensis) | IC50 (Leishmania infantum; Leishmania infantum) | SI L. infantum (Leishmania infantum) | CC50 at 24 h [1] | Solubility in buffer at the concentrations for the fluorescence experiments, in words [2] | Infection rate of L. infantum in macrophages, in words [3]
1 | Cc1ccc(S(=O)(=O)NNC(Nc2ccc([N+](=O)[O-])cc2)=[S][Ag+][S]=C(NNS(=O)(=O)c2ccc(C)cc2)Nc2ccc([N+](=O)[O-])cc2)cc1.O=[N+]([O-])[O-] [Ag5, [Ag(HL5^NO2Ph)2]NO3] | 90.73 ± 0.236 µM | 5.44 | 78.79 ± 0.091 µM | 493 µM | – | – | – | – | – | –
2 | C=CCNC(=S)NNS(=O)(=O)c1ccc(C)cc1 [HL6^Al, N-allyl-2-tosylhydrazinocarbothioamide] | – | 0.60 | – | – | 313.5 ± 0.063 µM | 812.8 ± 0.515 µM | 0.23 | 188 µM | not soluble in the buffer used for the experiment | –
3 | Cc1ccc(S(=O)(=O)NNC(Nc2ccccc2)=[S][Au+][S]=C(NNS(=O)(=O)c2ccc(C)cc2)Nc2ccccc2)cc1.[Cl-] [Au2, [Au(HL2^Ph)2]Cl] | 143.2 ± 0.085 µM | 2.06 | 41.69 ± 0.21 µM | 296 µM | – | – | 7.09 | – | – | able to inhibit the parasite infection inside the cells even at lower concentrations than that determined by their IC50 values; also recorded: able to inhibit the parasite infection even at lower concentrations than that of their IC50 values
4 | Cc1ccc(S(=O)(=O)NNC(Nc2ccccc2)=[S][Ag+][S]=C(NNS(=O)(=O)c2ccc(C)cc2)Nc2ccccc2)cc1.O=[N+]([O-])[O-] [Ag2, [Ag(HL2^Ph)2]NO3] | 183.7 ± 0.027 µM | 0.50 | 280.5 ± 0.167 µM | 92.1 µM | – | – | 0.33 | – | – | –
5 | Cc1ccc(S(=O)(=O)NNC(NC2CCCCC2)=[S][Ag+][S]=C(NNS(=O)(=O)c2ccc(C)cc2)NC2CCCCC2)cc1.O=[N+]([O-])[O-] [Ag1, [Ag(HL1^Ch)2]NO3] | 50.15 ± 0.02 µM | 0.15 | 57.42 ± 0.028 µM | 7.4 µM | – | – | 0.129 | – | – | –
6 | C=CCNC(NNS(=O)(=O)c1ccc(C)cc1)=[S][Au+][S]=C(NCC=C)NNS(=O)(=O)c1ccc(C)cc1.[Cl-] [Au6, [Au(HL6^Al)2]Cl] | 5554 ± 1.37 µM | 0.01 | 62.54 ± 0.151 µM | 77.5 µM | – | – | 1.24 | – | not soluble in the buffer used for the experiment | –
7 | Cc1ccc(S(=O)(=O)NNC(Nc2ccc([N+](=O)[O-])cc2)=[S][Au+][S]=C(NNS(=O)(=O)c2ccc(C)cc2)Nc2ccc([N+](=O)[O-])cc2)cc1.[Cl-] [Au5, [Au(HL5^NO2Ph)2]Cl] | 284 ± 0.259 µM | 0.21 | 295.5 ± 0.259 µM | 58.6 µM | – | – | 0.198 | – | – | –
8 | Cc1ccc(S(=O)(=O)NNC(Nc2ccc(Cl)cc2)=[S][Ag+][S]=C(NNS(=O)(=O)c2ccc(C)cc2)Nc2ccc(Cl)cc2)cc1.O=[N+]([O-])[O-] [Ag4, [Ag(HL4^ClPh)2]NO3] | 84.62 ± 0.116 µM | >5.91 | 72.17 ± 0.036 µM | > 500 µM | – | – | – | – | – | did not show a promising infection rate
9 | C=CCNC(NNS(=O)(=O)c1ccc(C)cc1)=[S][Ag+][S]=C(NCC=C)NNS(=O)(=O)c1ccc(C)cc1.O=[N+]([O-])[O-] [Ag6, [Ag(HL6^Al)2]NO3] | 305.2 ± 0.032 µM | >1.64 | 78.59 ± 0.605 µM | > 500 µM | – | – | >6.36 | – | not soluble in the buffer used for the experiment | able to inhibit the parasite infection inside the cells even at lower concentrations than that determined by their IC50 values; also recorded: able to inhibit the parasite infection even at lower concentrations than that of their IC50 values
10 | Cc1ccc(S(=O)(=O)NNC(Nc2ccc(F)cc2)=[S][Au+][S]=C(NNS(=O)(=O)c2ccc(C)cc2)Nc2ccc(F)cc2)cc1.[Cl-] [Au3, [Au(HL3^FPh)2]Cl] | 194.9 ± 0.063 µM | 0.15 | 173.9 ± 0.087 µM | 28.8 µM | – | – | 0.17 | – | – | –
11 | Cc1ccc(S(=O)(=O)NNC(=S)Nc2ccc(Cl)cc2)cc1 [HL4^ClPh, N-(4-chlorophenyl)-2-tosylhydrazinocarbothioamide] | – | 0.13 | – | – | 133.8 ± 0.036 µM | 108.4 ± 0.104 µM | 0.16 | 16.8 µM | – | –

Source: PMC11053681, “Gold(I) and Silver(I) Complexes Containing Hybrid Sulfonamide/Thiourea Ligands as Potential Leishmanicidal Agents” (Pharmaceutics, 2024)
